Results on four compounds are retold here after patent publication US8173385B2, “Method for stabilization of peptides in a biological sample” (Kyowa Medex Co., Ltd., priority 2005, dated 2012).

Data set [1] concerns substance P in human plasma.
Description: (§1) To 50 μL portions of human plasma prepared in the same manner as in Example 1 was added a 400 mg/mL aqueous solution of glucose (special grade; Kanto Chemical Co., Inc.) prepared with purified water (100 μL), followed by mixing. […] The concentrations of substance P in the thawed portions of sample N were measured in the same manner as in Example 1 to calculate the residual rates, which are the index for the stability of substance P in plasma.
(§2) To 50 μL portions of human plasma prepared in the same manner as in Example 1 was added a 200 pg/mL aqueous solution of substance P (50 μL) to prepare six portions of sample.
(§3) After the preparation, the samples were frozen at −80° C. and then thawed at room temperature 0 day, 3 days and 13 days after the freezing. The concentrations of substance P in the thawed samples were measured in the same manner as in Example 1 using Substance P EIA Kit (Cayman) to calculate the residual rates, which are the index for the stability of substance P in plasma.
For data set [2], the system named is substance P in human plasma. Particulars: 4° C. 18 hours. As to the method: To 50 μL portions of the human plasma were respectively added a 200 mg/mL aqueous solution of xylose, a 200 mg/mL aqueous solution of glucose, a 200 mg/mL aqueous solution of mannose and a 200 mg/mL aqueous solution of galactose (100 μL each), followed by mixing.
Measurement of substance P in samples A to D and the control sample was carried out in duplicate in the following manner, using Substance P EIA Kit (Cayman) according to the manual attached to the kit.
The above kit is a kit for enzyme immunoassay by the competitive method using, as a competitive substance, substance P bound to acetylcholine esterase (substance P AchE tracer). The measurement with this kit is carried out by allowing substance P in a sample and the competitive substance to competitively react with anti-substance P antibody on a solid phase and reacting acetylcholine esterase in the competitive substance bound to the anti-substance P antibody on a solid phase with Ellman's reagent to develop color, followed by the measurement of the absorbance. Then, the concentration of substance P in the sample can be determined based on a previously prepared calibration curve. […]

For data set [3], the system named is neutral endopeptidase (NEP). Description: Effect of addition of a saccharide on degradation of substance P by neutral endopeptidase (NEP). Particulars: for Degradation of substance P by NEP: result in words. In kind it is biochemical. The procedure: Similarly, samples each comprising 150 μL of human plasma, 150 μL of a 200 pg/mL aqueous solution of substance P, 300 μL of a 400 mg/mL aqueous solution of glucose and 50 μL of an enzyme solution (respective NEP concentrations; 0 U/mL, 0.1 U/mL, 1.0 U/mL and 10.0 U/mL) were prepared.
Further, samples each comprising 150 μL of human plasma, 150 μL of a 200 pg/mL aqueous solution of substance P, 300 μL of a 10 mmol/L aqueous solution of phosphoramidon and 50 μL of an enzyme solution (respective NEP concentrations; 0 U/mL, 0.1 U/mL, 1.0 U/mL and 10.0 U/mL) were prepared.

The nature of data set [4]: Stability of substance P in aqueous solution without plasma (Substance P EIA Kit). In kind it is physicochemical. Particulars: for Concentration of substance P measured in the substance P solution: 200 pg/mL aqueous solution. The procedure: When the 200 pg/mL aqueous solution of substance P was, without being mixed with the human plasma, subjected to measurement of substance P under the present measurement conditions including incubation at 4° C. for 18 hours, the obtained value was 226.16 pg/mL. […] On the other hand, as shown in the experiment on the control sample, when the sample having the initial substance P concentration of 116.93 pg/mL was subjected to measurement under the present measurement conditions including incubation at 4° C. for 18 hours, the obtained average substance P concentration was 60.57 pg/mL.
The concentrations of substance P in the human plasma used for the preparation of the samples subjected to the incubation for 16 hours, 24 hours and 48 hours were determined to be 15.02 pg/mL, 4.95 pg/mL and 5.71 pg/mL, respectively. The concentrations of substance P in the substance P solution used for the preparation of the samples subjected to the incubation for 16 hours, 24 hours and 48 hours were determined to be 211.1 pg/mL, 208.4 pg/mL and 197.8 pg/mL, respectively. From these measurement values, the theoretical values of the concentrations of substance P in the samples were calculated in the same manner as in Example 1, and the residual rates were calculated from the theoretical values and the measurement values.

In data set [5] the test system is substance P in human plasma. The experiment in a line: Stabilization of substance P in plasma by addition of a saccharide when frozen at −80° C. The note with it: Example 6: same additive solutions.
Description: as §1, §2, §3

Read-outs that look alike come from different tables or passages of the source.

In the case of `O=C([O-])CN(CCN(CC(=O)[O-])CC(=O)O)CC(=O)O.[Na+].[Na+]` [EDTA•2Na, ethylenediaminetetraacetic acid.disodium], in data set [1], the “Residual rate, Day 3” value is reported as 26.4% and the “Residual rate, Day 13” value was 32.6%.

With substance P, the “Average substance P concentration in plasma without saccharide” value in data set [2] (control sample, initial substance P concentration 116.93 pg/mL) was determined as 60.57 pg/mL. Besides, in data set [2] (no saccharide, result in words), the “Stability of substance P in the presence of plasma” value is recorded as “unstable”. The “Residual rate of substance P, NEP concentration 0 U/mL” value in data set [3] (human plasma + substance P ± 400 mg/mL glucose or 10 mmol/L phosphoramidon solution, enzyme solution NEP 0 U/mL) was found to be 100.0%. For the same compound, in data set [3] (human plasma + substance P ± 400 mg/mL glucose or 10 mmol/L phosphoramidon solution, enzyme solution NEP 0.1 U/mL), the “Residual rate of substance P, NEP concentration 0.1 U/mL” value is given as 102.2%. The “Residual rate of substance P, NEP concentration 1.0 U/mL” value in data set [3] (human plasma + substance P ± 400 mg/mL glucose or 10 mmol/L phosphoramidon solution, enzyme solution NEP 1.0 U/mL) stood at 93.3%. In addition, in data set [3] (human plasma + substance P ± 400 mg/mL glucose or 10 mmol/L phosphoramidon solution, enzyme solution NEP 10.0 U/mL), the “Residual rate of substance P, NEP concentration 10.0 U/mL” value is given as 84.0%. Moreover, the “Degradation of substance P by NEP” value in data set [3] was “degraded by NEP”. In addition, the results for the “Concentration of substance P measured in the substance P solution” value in data set [4] (incubation 16 hours at 4° C.), in data set [4] (incubation 24 hours at 4° C.) and in data set [4] (incubation 48 hours at 4° C.) were 0.2111 ng/mL, 0.2084 ng/mL and 0.1978 ng/mL, respectively. Further, in data set [4] (4° C. 18 hours, result in words), the “Stability of substance P in the aqueous solution” value is “stable”. Besides, the “Concentration of substance P measured in the 200 pg/mL aqueous solution of substance P” value in data set [4] (without human plasma, incubation at 4° C. for 18 hours) amounted to 0.22616 ng/mL.

For the compound `CC(C)C[C@H](NP(=O)(O)O[C@@H]1O[C@@H](C)[C@H](O)[C@@H](O)[C@H]1O)C(=O)N[C@@H](Cc1c[nH]c2ccccc12)C(=O)O` [Phosphoramidon, phosphoramidon], the “Degradation of substance P by NEP” value in data set [3] is listed as “inhibited”. The “Residual rate, Day 3” value in data set [1] (human, 3 days) was determined as 29.0%. Moreover, in data set [1] (human, 13 days), the “Residual rate, Day 13” value is 25.6%.

Turning to magnesium gluconate, in data set [5] (thawed 3 days after the freezing), the “Residual rate, Day 3” value worked out at 42.6%. Also, in data set [5] (thawed 13 days after the freezing), the “Residual rate, Day 13” value is reported as 40.1%.
